Results on one substance are retold here after patent US20230114264A1, “ACTIVATION OF LYTIC GENES IN CANCER CELLS” (priority 2020, published 2023).

Holding throughout (format): cell-based, Epstein-Barr virus (EBV)
In data set [1] the test system is EBV lytic genes. As to the kind of experiment: EBV lytic gene induction in DOX-induced C666-1 dCas9-Tet-on-PUFa-p65HSF1 gRNA cells. From the text:
(§1) SNU-719 and C666-1 cancer cells stably expressing HA-dCas9-EGFP and BZLF1 gRNA (A5) were modified to inducibly express 3×FLAG-PUFa-p65HSF1 using a Tetracycline response element (Tet-On). […] This reactivation of EBV slows the growth rate of cells by greater than 4 fold compared with cells treated with ganciclovir (GCV) alone, a current standard treatment for EBV infection (FIGS. 3B, 6A, 8H-8I). Further, treatment with BZLF1 gRNA (A5) decreases C666-1 cell viability by 50-70% relative to control (FIG. 6B).
(§2) Producing Tet-on PUFa-p65HSF1 cell line. SNU-719 or C666-1 cells stably expressing HA-dCas9-EGFP were seeded into a 60 mm culture dish at 70% density. The cells were transfected with 1 μg hyPBase (transposase) and 2 μg dox-inducible PUFa-p65HSF1 in a piggyBac vector plasmid through Lipofectamine 2000 reagent (Invitrogen). At 6 hours post-transfection, cell culture medium was exchanged. At 48 hours post-transfection, cells were selected with hygromycin antibiotics.
(§3) Producing Tet-on PUFa-p65HSF1 and BZLF1 gRNA (3) cell line. The day prior to transfection, HEK-293FT cells were seeded into a 10 cm culture dish at 70% density. […]. At 6 hours post-transfection, medium was exchanged for fresh. At 48 hours post-transfection, 5 mL of medium containing the lentivirus was collected and centrifuged for 10 minutes at 2,000 rpm to remove cellular debris. The supernatant was filtered through a 0.45-micron filter (Millipore), and the lentivirus was collected. SNU-719 dCas9-Tet-on-PUFa-p65HSF1 or C666-1 dCas9-Tet-on-PUFa-p65HSF1 cells were seeded into a 10 cm culture dish at 60% density per dish, transduced with 7 mL of the BZLF1 gRNA (A5) lentivirus in culture medium supplemented with 8 μg/mL polybrene for 48 hours, and subsequently selected with Puromycin antibiotics on the third day post-transduction.
(§4) RNA in-situ hybridization ISH (RNAscope®). Doxycycline (DOX) treated or untreated SNU-719 HA-dCas9-EGFP-Tet-on-PUFa-p65HSF1-BZLF1 gRNA (A5) cells or C666-1-HA-dCas9-Tet-on-PUFa-p65HSF1-BZLF1 gRNA (A5) cells were incubated for 48 hours. […]

The subject of data set [2] is EBV lytic genes. The data set is described as follows: EBV lytic gene induction in DOX-induced SNU-719 dCas9-Tet-on-PUFa-p65HSF1 gRNA cells.
Text: as §1, §2, §3, §4

In data set [3] the test system is BZLF1. The data set is described as follows: EBV reactivation by BZLF1 gRNA transfection (Casilio) in SNU-719 cells stably expressing HA-dCas9-EGFP and 3×FLAG-PUFa-p65HSF1. Here is the method: SNU-719 and C666-1 cells stably expressing HA-dCas9-EGFP and 3×FLAG-PUFa-p65HSF1 were cultivated in RPMI-1640 (Sigma) with 10% fetal bovine serum (FBS) (Gibco) and 1% GlutaMAX (Gibco) and cultured in 37° C. incubator with 5% CO2. EBV reactivation experiments were conducted with cells seeded into 6-well plates at 2×10^6 cells per well the day before transfection. 2 micrograms (μg) of control gRNA or individual BZLF1 gRNA (A3) (SEQ ID NO: 8), gRNA (A4) (SEQ ID NO: 9), gRNA (A5) (SEQ ID NO: 10), or gRNA (A6) (SEQ ID NO: 11) gRNAs were transfected into cells with Lipofectamine 2000 (Invitrogen). After transfection, cells were grown for 48 hours and harvested for protein extraction or FACS (FIGS. 4, 5, 7A-7E).
FACS Analysis. Cells were harvested with trypsin and fixed for 15 minutes (mins) with 4% paraformaldehyde. The cells were then centrifuged at 2000×g for 5 mins and resuspended in 3% BSA for 30 mins. The resuspend cells were centrifuged again at 2000×g for 5 mins. […] Samples were analyzed on a FACSCalibur flow cytometer using CellQuest Pro software (BD Bioscience). […]
Quantitative RT-PCR Analysis. […] Power SYBR Green master mix was used for performing real-time quantitative PCR (RT-qPCR). […] The RT-qPCR samples were analyzed with a Roche LC480 PCR instrument. Gene expression levels were calculated by “delta Ct” algorithm and normalized to control samples.

Setting [4] is: 1 μg/mL Doxycycline (DOX), Example 10.
Setting [5] is: 3×FLAG-PUFa-p65HSF1 induced with 1 μg/mL Doxycycline.

In the case of “BZLF1 gRNA (A5): BZLF1 gRNA spacer sequence SEQ ID NO: 10, GAAACTATGCATGAGCCAC (chemistry not given here)”, the “expression of other EBV lytic genes including BRLF1 (Rta), BGLF4 (PK), BFRF3 (VCAp18), BMRF1, BdRF1 and BLLF1” value in data set [1] (1 μg/mL DOX) and in data set [2] (1 μg/mL DOX) was “induces the expression of other EBV lytic genes” throughout. The “BZLF1 (Zta) reactivation” value in data set [1] (setting [4]) and in data set [2] (setting [4]) was “reactivated BZLF1 (Zta)” in each case. Moreover, the “induction of the BZLF1, BGLF4, BMRF1, and BFRF3 (VCAp18) EBV lytic genes” value in data set [1] (setting [5]) and in data set [2] (setting [5]) was “reactivated EBV” throughout. Besides, the “EBV reactivation, induction of BZLF1 (Zta) protein expression” value in data set [3] (2 μg gRNA, 48 hours after transfection, protein extraction or FACS) is recorded as “reactivate EBV expression at detectable levels”. For the same substance, the “BZLF1 (ZTa) protein expression by immunostaining” value in data set [3] (FIG. 7E) is “activated BZLF1 (ZTa) protein expression”.
